Assays:
Type in all cases: biochemical
Tiam1 (full-length) = target: T1, Tiam1 (full-length) (Homo sapiens, UniProt Q13009); assay: Liposome-based GEF activity assay, Tiam1; details: 10 µM, 50 nM full-length Tiam1
T1 construct: Full-length Tiam1, expressed in and purified from Sf9 cells; host or cells: Sf9 cells
Protocol: (§1) Full-length N-terminally EE-tagged P-Rex1, P-Rex2, the P-Rex1 DH and DHPH domains and the P-Rex2 DH domain were produced in Sf9 cells using baculoviral transduction and were purified using anti-EE beads, as previously described. Briefly, frozen pellets from 500 ml of Sf9 culture infected with P-Rex expressing high-titre baculovirus were resuspended in ice-cold lysis Sf9-cell lysis buffer 2 (1x PBS, 1% Triton X-100, 5 mM EGTA, 1 mM EDTA, 25 mM NaF, 20 mM β-glycerophosphate, 1 mM DTT, 100 µM PMSF, 10 μg/ml each of leupeptin, pepstatin A, aprotinin and antipain) for 5 min and then ultracentrifuged at 118,000 × g for 1 h at 4°C. Supernatants were incubated with pre-washed anti-EE beads for 90 min on ice with end-over-end rotation. […] Protein concentration and purity were determined by coomassie staining of SDS-PAGE gels. […]
(§2) Liposome-based GEF activity assays were carried out essentially as described, except that GEFs were incubated with inhibitor compounds prior to the assay. […] Small GTPases were isolated using anti-EE antibody-coupled Sepharose beads or glutathione Sepharose beads, as appropriate, by incubation on ice for 90 min with end-over-end rotation, four washes in ice-cold wash buffer and resuspension of beads in Ultima Gold scintillation fluid (Perkin Elmer). ^35S-GTPγS incorporation was assessed by scintillation counting (Packard 1600TR, Liquid Scintillation Analyser).

ITSN1 (DHPH) = target: T2, ITSN1 (DHPH) (Homo sapiens, UniProt Q15811); assay: Liposome-based GEF activity assay, ITSN1; details: 10 µM, 100 nM ITSN1 DHPH
T2 construct: The ITSN1 DHPH domains and Ect2 DHPH domains, produced in and purified from bacteria; host or cells: bacteria
T2 sequence (Q15811 1229-1580 limits assumed): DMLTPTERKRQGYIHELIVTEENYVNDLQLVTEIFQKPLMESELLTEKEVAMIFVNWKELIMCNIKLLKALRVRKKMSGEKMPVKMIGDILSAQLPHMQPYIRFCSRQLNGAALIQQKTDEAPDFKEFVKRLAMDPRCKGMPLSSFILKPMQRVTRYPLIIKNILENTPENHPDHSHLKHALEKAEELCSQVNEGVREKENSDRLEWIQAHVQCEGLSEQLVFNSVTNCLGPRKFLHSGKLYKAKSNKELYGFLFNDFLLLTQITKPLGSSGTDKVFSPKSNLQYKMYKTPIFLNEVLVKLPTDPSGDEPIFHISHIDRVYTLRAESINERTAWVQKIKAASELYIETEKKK
Protocol: as §1, §2

full-length P-Rex2 = target: T3, full-length P-Rex2 (Homo sapiens, UniProt Q70Z35); assay: Liposome-based GEF activity assay, PIP3-stimulated full-length P-Rex2; details: 40 nM P-Rex2, read-out: inhibition of PIP3-stimulated Rac-GEF activity of full-length P-Rex2
T3 construct: Full-length N-terminally EE-tagged P-Rex1, P-Rex2; made in house; host or cells: Sf9 cells (baculovirus)
Protocol: as §1, §2

T3 sequence (Q70Z35 whole entry): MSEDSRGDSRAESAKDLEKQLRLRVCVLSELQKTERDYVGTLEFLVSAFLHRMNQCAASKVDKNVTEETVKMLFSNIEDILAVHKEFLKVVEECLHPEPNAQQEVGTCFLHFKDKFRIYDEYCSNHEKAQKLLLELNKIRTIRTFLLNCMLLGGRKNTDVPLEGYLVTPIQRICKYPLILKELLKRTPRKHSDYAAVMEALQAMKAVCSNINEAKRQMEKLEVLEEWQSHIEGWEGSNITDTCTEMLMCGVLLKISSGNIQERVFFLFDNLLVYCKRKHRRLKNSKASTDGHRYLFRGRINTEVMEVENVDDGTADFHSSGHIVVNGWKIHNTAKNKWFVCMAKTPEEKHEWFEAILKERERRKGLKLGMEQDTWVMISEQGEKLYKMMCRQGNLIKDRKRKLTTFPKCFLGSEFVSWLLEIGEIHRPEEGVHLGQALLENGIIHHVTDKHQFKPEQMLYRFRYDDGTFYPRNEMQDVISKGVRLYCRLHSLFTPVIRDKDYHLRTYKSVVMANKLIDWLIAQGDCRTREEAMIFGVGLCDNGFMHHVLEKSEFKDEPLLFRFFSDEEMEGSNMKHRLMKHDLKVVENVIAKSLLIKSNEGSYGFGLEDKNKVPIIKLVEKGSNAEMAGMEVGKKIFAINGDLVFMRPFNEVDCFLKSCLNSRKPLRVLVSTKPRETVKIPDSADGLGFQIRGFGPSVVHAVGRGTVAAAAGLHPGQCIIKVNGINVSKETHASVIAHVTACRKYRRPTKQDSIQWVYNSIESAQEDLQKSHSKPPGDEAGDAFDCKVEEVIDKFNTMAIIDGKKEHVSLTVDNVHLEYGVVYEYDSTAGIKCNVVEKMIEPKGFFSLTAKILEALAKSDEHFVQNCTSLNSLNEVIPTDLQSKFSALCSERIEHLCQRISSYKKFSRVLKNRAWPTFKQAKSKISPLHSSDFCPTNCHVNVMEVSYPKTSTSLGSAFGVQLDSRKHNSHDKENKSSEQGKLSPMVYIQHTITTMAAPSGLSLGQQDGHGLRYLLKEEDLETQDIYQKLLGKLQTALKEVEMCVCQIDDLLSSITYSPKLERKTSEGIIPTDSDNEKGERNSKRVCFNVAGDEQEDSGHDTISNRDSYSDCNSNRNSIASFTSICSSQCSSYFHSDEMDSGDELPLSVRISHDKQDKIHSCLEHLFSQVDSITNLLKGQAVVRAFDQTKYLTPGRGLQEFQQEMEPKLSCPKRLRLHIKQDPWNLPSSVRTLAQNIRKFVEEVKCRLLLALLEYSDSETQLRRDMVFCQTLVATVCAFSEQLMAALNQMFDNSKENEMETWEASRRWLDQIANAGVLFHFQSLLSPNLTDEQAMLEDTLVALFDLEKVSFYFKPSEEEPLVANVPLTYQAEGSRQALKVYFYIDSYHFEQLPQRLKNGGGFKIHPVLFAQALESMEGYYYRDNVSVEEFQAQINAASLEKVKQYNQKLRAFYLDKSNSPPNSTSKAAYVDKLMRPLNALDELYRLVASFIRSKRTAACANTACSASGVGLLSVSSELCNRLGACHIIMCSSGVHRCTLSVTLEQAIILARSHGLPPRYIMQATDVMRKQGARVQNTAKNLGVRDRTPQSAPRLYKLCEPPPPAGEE
T1 sequence (Q13009 whole entry): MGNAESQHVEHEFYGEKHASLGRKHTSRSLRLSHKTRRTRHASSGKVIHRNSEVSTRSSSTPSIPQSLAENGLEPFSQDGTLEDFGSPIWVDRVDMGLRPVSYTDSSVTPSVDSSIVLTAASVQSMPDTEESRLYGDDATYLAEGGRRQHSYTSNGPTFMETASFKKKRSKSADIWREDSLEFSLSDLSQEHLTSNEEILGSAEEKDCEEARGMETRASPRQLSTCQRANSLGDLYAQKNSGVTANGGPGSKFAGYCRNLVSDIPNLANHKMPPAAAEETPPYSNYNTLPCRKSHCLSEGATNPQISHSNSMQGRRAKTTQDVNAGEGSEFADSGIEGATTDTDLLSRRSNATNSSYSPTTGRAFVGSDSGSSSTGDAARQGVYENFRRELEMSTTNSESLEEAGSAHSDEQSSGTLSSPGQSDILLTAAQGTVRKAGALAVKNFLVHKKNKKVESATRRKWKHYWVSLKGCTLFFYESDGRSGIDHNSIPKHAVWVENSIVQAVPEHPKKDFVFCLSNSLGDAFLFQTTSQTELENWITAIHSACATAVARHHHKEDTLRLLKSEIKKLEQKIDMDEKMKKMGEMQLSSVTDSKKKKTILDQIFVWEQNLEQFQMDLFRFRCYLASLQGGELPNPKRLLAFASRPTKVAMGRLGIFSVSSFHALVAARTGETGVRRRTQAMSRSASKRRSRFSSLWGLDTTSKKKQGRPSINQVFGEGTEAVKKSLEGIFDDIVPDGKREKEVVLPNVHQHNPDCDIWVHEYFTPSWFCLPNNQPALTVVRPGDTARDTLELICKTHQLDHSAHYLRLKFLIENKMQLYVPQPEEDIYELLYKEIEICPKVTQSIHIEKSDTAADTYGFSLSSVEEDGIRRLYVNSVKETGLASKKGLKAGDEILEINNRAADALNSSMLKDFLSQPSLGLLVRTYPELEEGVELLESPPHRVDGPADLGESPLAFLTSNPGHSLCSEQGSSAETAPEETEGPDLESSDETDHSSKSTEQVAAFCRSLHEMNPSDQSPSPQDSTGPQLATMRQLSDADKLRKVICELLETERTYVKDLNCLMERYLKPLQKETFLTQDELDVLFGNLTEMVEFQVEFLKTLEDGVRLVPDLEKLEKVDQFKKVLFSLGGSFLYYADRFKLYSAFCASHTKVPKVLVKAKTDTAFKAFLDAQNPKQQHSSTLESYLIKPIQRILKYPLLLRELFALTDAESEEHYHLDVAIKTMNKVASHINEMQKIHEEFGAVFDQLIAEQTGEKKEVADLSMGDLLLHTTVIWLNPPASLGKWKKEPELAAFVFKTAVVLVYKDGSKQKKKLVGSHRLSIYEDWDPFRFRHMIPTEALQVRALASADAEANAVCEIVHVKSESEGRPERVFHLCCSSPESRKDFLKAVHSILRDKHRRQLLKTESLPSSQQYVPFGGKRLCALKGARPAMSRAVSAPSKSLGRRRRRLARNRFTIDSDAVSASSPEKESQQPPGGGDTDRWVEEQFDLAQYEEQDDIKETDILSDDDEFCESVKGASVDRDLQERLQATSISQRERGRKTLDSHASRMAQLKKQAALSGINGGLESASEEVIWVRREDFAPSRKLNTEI

COc1ccc(-c2[nH]nc3c2C(c2ccc(-c4ccc(Cl)cc4)o2)C(C#N)=C(N)O3)cc1 (stereo not drawn) [PREX-in1, 6-amino-4-[5-(4-chlorophenyl)-2-furyl]-3-(4-methoxyphenyl)-2,4-dihydropyrano[2,3-c]pyrazole-5-carbonitrile]
effect on GEF activity of Tiam1 (Tiam1 (full-length)): none of the other GEFs were affected
effect on GEF activity of ITSN1 (ITSN1 (DHPH)): none of the other GEFs were affected
inhibition at 10 µM (full-length P-Rex2): 82%
